A short description of data set [1]: Metabolic stability test in liver microsomes. The conditions noted are these: 0.5 mg protein/mL, 37° C. It is filed as in vitro ADME. The procedure:
(§1) The test compounds at a concentration of […] were administered in the presence or absence of NADPH (1 mM) to liver […] (0.5 mg protein/mL) of humans, rats and mice, and metabolic stability was tested at 37° C. for 30 minutes. In addition, buspirone was used as a positive control. Results thereof are shown in Table below and FIGS. 4A to 4E.
Background: Liver microsomes are a subcellular fraction often used to study metabolism.

Data set [2] in a line: Stability in buffer (line of the metabolic stability test). Type of data set: in vitro ADME. The protocol: as §1
A short description of data set [3]: Stability test in plasma. It is filed as in vitro ADME. More on the design: Residue % (180 minutes elapsed), Mean: dose or concentration left out as unconfirmed. The following applies: 37° C. The protocol:
In order to test the stability (in vivo) of the Example compounds according to the present invention, the compounds of Examples 2, 3, 4, 8 and 15 were administered intravenously, and plasma concentrations over time were observed. In addition, procaine was used as a positive control. Plasma stability was measured three times by administering the test compound at a concentration […] to human, rat, or mouse plasma (90 μL) at 37° C. Results thereof are shown in Table below and FIGS. 3A to 3E.

In a further data set the test system is HeLa cells. In words: Anti-proliferative activity test in HeLa cell line (MTT). It is filed as cell-based. The following applies: Homo sapiens, 48 h, grown for 2 days, mean of 2. The procedure:
HeLa cells (American Type Culture Collection: ATCC, USA), a human cervical cancer cell line, were seeded in a 96-well plate at 3×10^3 cells/well, and the cells were then treated with compounds of Examples or Comparative Example according to the present invention and grown for 2 days. Then, MTT (3-(4,5-dimethylthiazol-2-yl)-2,5-diphenyltetrazolium bromide) reagent was added at 10 μL/well. After 2 hours, absorbance was measured at “OD 450” and statistical values were obtained using Prism™6 program. The data shown in Table below are mean values of results obtained by repeating the analysis twice.

Data set [4] in a line: Stability test in plasma. Type of data set: in vitro ADME. The conditions noted are these: Rat plasma, 37° C. The procedure: In order to test the stability (in vivo) of the Example compounds according to the present invention, the compounds of Examples 2, 3, 4, 8 and 15 were administered intravenously, and plasma concentrations over time were observed. In addition, procaine was used as a positive control. Plasma stability was measured three times by administering the test compound at a concentration of 5 mM to human, rat, or mouse plasma (90 μL) at 37° C. Results thereof are shown in Table below and FIGS. 3A to 3E.

A further data set has as its system K562/ADR. The experiment in a line: Anti-proliferative activity test in cancer cells exhibiting multidrug resistance (MTT). It is filed as cell-based. The following applies: for pIC50: Homo sapiens, 96 h, K562/ADR (multidrug-resistant), 4 days, MTT; for Resistance Factor: ratio IC50 K562/ADR to IC50 K562. The procedure:
(§2) HeLa cells (American Type Culture Collection: ATCC, USA), a human cervical cancer cell line, were seeded in a 96-well plate at 3×10^3 cells/well, and the cells were then treated with compounds of Examples or Comparative Example according to the present invention and grown for 2 days. Then, MTT (3-(4,5-dimethylthiazol-2-yl)-2,5-diphenyltetrazolium bromide) reagent was added at 10 μL/well. […] The data shown in Table below are mean values of results obtained by repeating the analysis twice. Specifically, K562 and MCF7 (Bio Evaluation Center, Korea Research Institute of Bioscience and Biotechnology, Korea) and multidrug-resistant cell lines of each of these cell lines, i.e., K562/ADR and MCF7/ADR (Bio Evaluation Center, Korea Research Institute of Bioscience and Biotechnology, Korea), were cultured on microtiter plates (1-3×10^3 cells/well). […] The data shown in Table below are mean values of results obtained by repeating the analysis three times.

The test system of another data set is MCF7/ADR. Described as above. It is filed as cell-based. The following applies: for pIC50: Homo sapiens, NCI/ADR-RES, 96 h, MCF7/ADR (multidrug-resistant), 4 days, MTT; for Resistance Factor: ratio IC50 MCF7/ADR to IC50 MCF7. The procedure:
as §2

The subject of another data set is MCF7. The experiment in a line: Anti-proliferative activity test in cancer cells exhibiting multidrug resistance (MTT), parent line. Type of data set: cell-based. The conditions noted are these: Homo sapiens, 96 h, 4 days. The protocol: as §2
The test system of the next data set is K562. The description is as above. It is filed as cell-based. The following applies: Homo sapiens, 96 h, 4 days. The protocol: as §2

pIC50: −log10 of the molar value. Bounds are passed on as bounds.

For the molecule `CCOC(=O)Cn1c(Cl)c(/C=N/NC(=O)c2cc3cc(C)ccc3o2)c2ccccc21` [Example 3, ethyl (E)-2-{2-chloro-3-[(2-(5-methylbenzofuran-2-carbonyl)hydrazinylidene)methyl]-1H-indol-1-yl}acetate], the “Residue (%) after culturing for 30 min” value in [1] (Human, +NADPH) is on record as 12.34 ± 0.69%; in data set [1] (Human, −NADPH), 22.26 ± 0.72%; in data set [1] (Mouse, +NADPH), 2.50 ± 0.11%; in data set [1] (Mouse, −NADPH), 6.81 ± 0.17%; in data set [1] (Rat, +NADPH), 1.39 ± 0.12%; in [1] (Rat, −NADPH), 8.53 ± 0.46%. Further, the “Residue (%) after culturing for 30 min” value in [2] turned out to be 89.02 ± 4.39%. Further, the “Residue % (180 minutes elapsed), Mean” value in the data set “Stability test in plasma [3]” (Human plasma) was 56.52%; in the data set “Stability test in plasma [3]” (Mouse plasma) it was 0.12%; in “Stability test in plasma [4]” (5 mM) it was 0.21%. Further, the half-life (as a rule, the time in which the quantity being followed falls by half) at 5 mM is above 180 min in the data set “Stability test in plasma [3]” (Human plasma), 5.6 min in “Stability test in plasma [3]” (Mouse plasma) and 4.6 min in “Stability test in plasma [4]”. The pIC50 (commonly −log10 of the IC50, conventionally taken in molar units) in the data set with HeLa cells was 6.61.
In the case of `CC[C@]1(O)C[C@@H]2CN(CCc3c([nH]c4ccccc34)[C@@](C(=O)OC)(c3cc4c(cc3OC)N(C)[C@H]3[C@@](O)(C(=O)OC)[C@H](OC(C)=O)[C@]5(CC)C=CCN6CC[C@]43[C@@H]65)C2)C1` [Vinblastine, vinblastine], the pIC50 is 6.57 in the data set on K562/ADR, 7.02 in the data set with MCF7/ADR, 8.28 with MCF7 and 7.77 in the data set on K562. For the same molecule, the “Resistance Factor” value with K562/ADR came to 15.63; with MCF7/ADR, 18.17.
`COc1cccc2c1C(=O)c1c(O)c3c(c(O)c1C2=O)C[C@@](O)(C(=O)CO)C[C@@H]3O[C@H]1C[C@H](N)[C@H](O)[C@H](C)O1` [Doxorubicin, doxorubicin]: the pIC50 in the data set on K562/ADR was 5.66; in the data set with MCF7/ADR, 5.58; in the data set on MCF7 it was 7.81; with K562 it was 8.55. Moreover, the “Resistance Factor” value turned out to be 767.91 in the data set on K562/ADR and 169.57 with MCF7/ADR.
As to `CC(=O)O[C@H]1C(=O)[C@@]2(C)[C@H]([C@H](OC(=O)c3ccccc3)[C@]3(O)C[C@H](OC(=O)[C@H](O)[C@@H](NC(=O)c4ccccc4)c4ccccc4)C(C)=C1C3(C)C)[C@]1(OC(C)=O)CO[C@@H]1C[C@@H]2O` [Taxol, taxol], the pIC50 was 6.15 in the data set on K562/ADR, 5.99 with MCF7/ADR, 8.63 in the data set with MCF7 and 8.87 in the data set with K562. Also, the figures for the “Resistance Factor” value with K562/ADR and in the data set with MCF7/ADR were 519.6 and 438.38, respectively.

Values taken from US12612389B2, “Benzofuran-based N-acylhydrazone derivative and pharmaceutical composition comprising same” (KOREA RESEARCH INSTITUTE OF BIOSCIENCE AND BIOTECHNOLOGY, priority 2019, dated 2026).
